Values joined by “and” are separate entries in the source; they are usually repeats but may differ in a detail not shown here. Identical values can stand only once.
Experiments:
[1] = system: E. coli (UTI89); test: Mouse UTI model, ciprofloxacin treatment, urine culture and PMA-PCR; details: 10 mg/kg i.p. twice a day for 3 days from day 5 post-inoculation; urine one day after completion
[2] = system: Klebsiella pneumoniae (ATCC 13883), phoE gene; test: PMA-qPCR of bacteria grown with ciprofloxacin; assay type: cell-based; details: 1000 μg/mL ciprofloxacin, 3 and 24-hour treatments
Source text: The samples underwent PMA treatment, followed by DNA extraction, as described in Example 2. A primer set specific for K. pneumoniae that targets the gene phoE, derived from Shannon et al (doi:10.1016/j.scitotenv. 2007.02.039) was used in conjunction with the samples in a qPCR reaction.

O=C(O)c1cn(C2CC2)c2cc(N3CCNCC3)c(F)cc2c1=O [ciprofloxacin, Ciprofloxacin]
groups of mice with no growth on non-selective LB agar [1]: 3 of 5 and 3 out of the 5
CT value of PMA-treated sample compared to non-PMA-treated equivalent [2]: greater CT

From patent US20230022779A1, “DETECTION OF VIABLE MICROORGANISMS IN URINE” (Children's National Medical Center, priority 2021, published 2023)
